From ChEMBL document CHEMBL1201862, “PubChem BioAssay data set” (2004)
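The compound was tested at five concentrations on cells cultured in 96-well plates, with a 48-hour exposure period. GI50: concentration for 50% inhibition of growth.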 Activity calls are given as the source filed them. Rule as the data show it: active = GI50 up to about 1.1 µM and inactive = higher.

Columns and labels:
Test in all cases: DTP human tumour cell line panel, 48 h
OVCAR-8 = tested on: OVCAR-8
NCI-H23 = tested on: NCI-H23
SF-295 = tested on: SF-295
OVCAR-4 = tested on: OVCAR-4
Malme-3M = tested on: Malme-3M
SK-OV-3 = tested on: SK-OV-3
MOLT-4 = tested on: MOLT-4
NCI-H460 = tested on: NCI-H460
KM-20L2 = tested on: KM-20L2
DLD-1 = tested on: DLD-1
HCT-116 = tested on: HCT-116
SNB-19 = tested on: SNB-19
CCRF-CEM = tested on: CCRF-CEM
TK-10 = tested on: TK-10
UO-31 = tested on: UO-31
HCC 2998 = tested on: HCC 2998
786-0 = tested on: 786-0
SK-MEL-28 = tested on: SK-MEL-28
SR = tested on: SR
MDA-MB-231 = tested on: MDA-MB-231

SMILES: COC(=O)C(C(=O)C(=O)Nc1ccccc1C(C)=O)c1nc2ccc(Cl)cc2nc1O (stereo not given)
- GI50 (OVCAR-8): > 100 µM (inactive)
- GI50 (NCI-H23): > 100 µM (inactive)
- GI50 (SF-295): > 100 µM (inactive)
- GI50 (OVCAR-4): > 100 µM (inactive)
- GI50 (Malme-3M): > 100 µM (inactive)
- GI50 (SK-OV-3): > 100 µM (inactive)
- GI50 (MOLT-4): > 100 µM (inactive)
- GI50 (NCI-H460): > 100 µM (inactive)
- GI50 (KM-20L2): > 100 µM (inactive)
- GI50 (DLD-1): > 100 µM (inactive)
- GI50 (HCT-116): > 100 µM (inactive)
- GI50 (SNB-19): > 100 µM (inactive)
- GI50 (CCRF-CEM): > 100 µM (inactive)
- GI50 (TK-10): > 100 µM (inactive)
- GI50 (UO-31): 77.8 µM (inactive)
- GI50 (HCC 2998): > 100 µM (inactive)
- GI50 (786-0): > 100 µM (inactive)
- GI50 (SK-MEL-28): > 100 µM (inactive)

SMILES: Cc1nc2ccccc2c(=O)n1/N=C(\N=N\c1cc(Cl)ccc1Cl)c1ccc(N(C)C)cc1
- GI50 (OVCAR-8): 40.9 µM (inactive)
- GI50 (NCI-H23): 34.8 µM (inactive)
- GI50 (SK-OV-3): 28.2 µM (inactive)
- GI50 (MOLT-4): 25.2 µM (inactive)
- GI50 (NCI-H460): 45.7 µM (inactive)
- GI50 (KM-20L2): > 100 µM (inactive)
- GI50 (DLD-1): 62.7 µM (inactive)
- GI50 (HCT-116): 32.3 µM (inactive)
- GI50 (SNB-19): 33.3 µM (inactive)
- GI50 (CCRF-CEM): 52.7 µM (inactive)
- GI50 (TK-10): 88.3 µM (inactive)
- GI50 (UO-31): 22.9 µM (inactive)
- GI50 (786-0): 73.5 µM (inactive)
- GI50 (SK-MEL-28): > 100 µM (inactive)

SMILES: CCN(CC)CCOc1ccc(CCc2cc(OC)c(OC)c(OC)c2)cc1
- GI50 (OVCAR-8): 67.9 µM (inactive)
- GI50 (SF-295): 18.4 µM (inactive)
- GI50 (OVCAR-4): 55.3 µM (inactive)
- GI50 (Malme-3M): 43.9 µM (inactive)
- GI50 (MOLT-4): 21.9 µM (inactive)
- GI50 (NCI-H460): 38.5 µM (inactive)
- GI50 (KM-20L2): 31.9 µM (inactive)
- GI50 (DLD-1): 64.1 µM (inactive)
- GI50 (HCT-116): 32.5 µM (inactive)
- GI50 (SNB-19): > 100 µM (inactive)
- GI50 (CCRF-CEM): 64.1 µM (inactive)
- GI50 (TK-10): 30.5 µM (inactive)
- GI50 (UO-31): 28.2 µM (inactive)
- GI50 (786-0): 37.1 µM (inactive)
- GI50 (SR): 31.3 µM (inactive)
- GI50 (SK-MEL-28): 78 µM (inactive)

SMILES: CCOC(=O)C1=C(Nc2ccc(Cl)c(Cl)c2)OC/C1=N\NS(=O)(=O)c1ccc(C)cc1
- GI50 (OVCAR-8): 75.2 µM (inactive)
- GI50 (NCI-H23): 34.7 µM (inactive)
- GI50 (SF-295): > 100 µM (inactive)
- GI50 (OVCAR-4): 63.5 µM (inactive)
- GI50 (Malme-3M): 67.8 µM (inactive)
- GI50 (SK-OV-3): 75.7 µM (inactive)
- GI50 (MOLT-4): 26.3 µM (inactive)
- GI50 (NCI-H460): 34.3 µM (inactive)
- GI50 (KM-20L2): 31.4 µM (inactive)
- GI50 (DLD-1): 39.8 µM (inactive)
- GI50 (HCT-116): 22.8 µM (inactive)
- GI50 (SNB-19): 59 µM (inactive)
- GI50 (CCRF-CEM): 27.5 µM (inactive)
- GI50 (TK-10): 42.5 µM (inactive)
- GI50 (UO-31): 25.1 µM (inactive)
- GI50 (HCC 2998): 33.5 µM (inactive)
- GI50 (786-0): > 100 µM (inactive)
- GI50 (SK-MEL-28): 64.7 µM (inactive)

SMILES: CC(=O)N(/N=C\c1ccc([N+](=O)[O-])cc1)c1ccccc1
- GI50 (OVCAR-8): > 100 µM (inactive)
- GI50 (NCI-H23): > 100 µM (inactive)
- GI50 (SF-295): > 100 µM (inactive)
- GI50 (OVCAR-4): > 100 µM (inactive)
- GI50 (Malme-3M): > 100 µM (inactive)
- GI50 (SK-OV-3): > 100 µM (inactive)
- GI50 (NCI-H460): > 100 µM (inactive)
- GI50 (KM-20L2): > 100 µM (inactive)
- GI50 (DLD-1): > 100 µM (inactive)
- GI50 (HCT-116): > 100 µM (inactive)
- GI50 (SNB-19): > 100 µM (inactive)
- GI50 (CCRF-CEM): > 100 µM (inactive)
- GI50 (TK-10): > 100 µM (inactive)
- GI50 (UO-31): 35.9 µM (inactive)
- GI50 (HCC 2998): > 100 µM (inactive)
- GI50 (786-0): > 100 µM (inactive)
- GI50 (SK-MEL-28): > 100 µM (inactive)

SMILES: Oc1ccc2occ3c2c1CCC3
- GI50 (OVCAR-8): > 100 µM (inactive)
- GI50 (NCI-H23): > 100 µM (inactive)
- GI50 (SF-295): > 100 µM (inactive)
- GI50 (OVCAR-4): > 100 µM (inactive)
- GI50 (SK-OV-3): > 100 µM (inactive)
- GI50 (MOLT-4): > 100 µM (inactive)
- GI50 (NCI-H460): > 100 µM (inactive)
- GI50 (KM-20L2): > 100 µM (inactive)
- GI50 (DLD-1): > 100 µM (inactive)
- GI50 (HCT-116): > 100 µM (inactive)
- GI50 (SNB-19): > 100 µM (inactive)
- GI50 (CCRF-CEM): > 100 µM (inactive)
- GI50 (TK-10): > 100 µM (inactive)
- GI50 (HCC 2998): > 100 µM (inactive)
- GI50 (786-0): > 100 µM (inactive)
- GI50 (SK-MEL-28): > 100 µM (inactive)

SMILES: COc1ccc(/C=C/c2cc(=O)cc(/C=C/c3ccc(OC)c(O)c3)o2)cc1O
- GI50 (OVCAR-8): 2.91 µM (inactive)
- GI50 (NCI-H23): 2.43 µM (inactive)
- GI50 (SF-295): 3.52 µM (inactive)
- GI50 (OVCAR-4): 2.81 µM (inactive)
- GI50 (MDA-MB-231): 2.05 µM (inactive)
- GI50 (Malme-3M): 2.16 µM (inactive)
- GI50 (SK-OV-3): 5.66 µM (inactive)
- GI50 (MOLT-4): 2.24 µM (inactive)
- GI50 (NCI-H460): 2.21 µM (inactive)
- GI50 (HCT-116): 2.43 µM (inactive)
- GI50 (SNB-19): 4.84 µM (inactive)
- GI50 (CCRF-CEM): 2.82 µM (inactive)
- GI50 (TK-10): 4.26 µM (inactive)
- GI50 (UO-31): 3.83 µM (inactive)
- GI50 (HCC 2998): 1.78 µM (inactive)
- GI50 (786-0): 3.06 µM (inactive)
- GI50 (SR): 1.02 µM (active)
- GI50 (SK-MEL-28): 3.56 µM (inactive)

SMILES: NC(=O)C1CCN(Cc2c(Cl)c(Cl)c(CN3CCC(C(N)=O)CC3)c(Cl)c2Cl)CC1
- GI50 (OVCAR-8): > 100 µM (inactive)
- GI50 (NCI-H23): > 100 µM (inactive)
- GI50 (SF-295): 23.7 µM (inactive)
- GI50 (OVCAR-4): > 100 µM (inactive)
- GI50 (MDA-MB-231): 28.8 µM (inactive)
- GI50 (Malme-3M): 90.8 µM (inactive)
- GI50 (SK-OV-3): 15.1 µM (inactive)
- GI50 (MOLT-4): > 100 µM (inactive)
- GI50 (NCI-H460): > 100 µM (inactive)
- GI50 (HCT-116): > 100 µM (inactive)
- GI50 (SNB-19): 43.9 µM (inactive)
- GI50 (CCRF-CEM): > 100 µM (inactive)
- GI50 (TK-10): > 100 µM (inactive)
- GI50 (UO-31): 63.5 µM (inactive)
- GI50 (HCC 2998): > 100 µM (inactive)
- GI50 (786-0): 77.1 µM (inactive)
- GI50 (SR): > 100 µM (inactive)
- GI50 (SK-MEL-28): > 100 µM (inactive)
